Consider one molecule from ChEMBL document CHEMBL1137326, “Cyclic MrIA: a stable and potent cyclic conotoxin with a novel topological fold that targets the norepinephrine transporter” (J Med Chem, 2006).

The term EC50 denotes the concentration that produces a half-maximal response.

One series concerns trypsin. The series can be described thus: Stability against cleavage by trypsin after 24 hrs by enzymatic digestion assay. It is filed as ADME. The note with it: human, read-out: Activity.
Series [1] addresses Sodium-dependent noradrenaline transporter (Homo sapiens, UniProt P23975). Description: Displacement of [3H]nisoxetine from human NET in COS7 cells. It is filed as cell-based, COS-7. (In general: Displacement assays read how much labelled ligand stays bound in the presence of the test substance.)

Sodium-dependent noradrenaline transporter, sequence (P23975 whole entry): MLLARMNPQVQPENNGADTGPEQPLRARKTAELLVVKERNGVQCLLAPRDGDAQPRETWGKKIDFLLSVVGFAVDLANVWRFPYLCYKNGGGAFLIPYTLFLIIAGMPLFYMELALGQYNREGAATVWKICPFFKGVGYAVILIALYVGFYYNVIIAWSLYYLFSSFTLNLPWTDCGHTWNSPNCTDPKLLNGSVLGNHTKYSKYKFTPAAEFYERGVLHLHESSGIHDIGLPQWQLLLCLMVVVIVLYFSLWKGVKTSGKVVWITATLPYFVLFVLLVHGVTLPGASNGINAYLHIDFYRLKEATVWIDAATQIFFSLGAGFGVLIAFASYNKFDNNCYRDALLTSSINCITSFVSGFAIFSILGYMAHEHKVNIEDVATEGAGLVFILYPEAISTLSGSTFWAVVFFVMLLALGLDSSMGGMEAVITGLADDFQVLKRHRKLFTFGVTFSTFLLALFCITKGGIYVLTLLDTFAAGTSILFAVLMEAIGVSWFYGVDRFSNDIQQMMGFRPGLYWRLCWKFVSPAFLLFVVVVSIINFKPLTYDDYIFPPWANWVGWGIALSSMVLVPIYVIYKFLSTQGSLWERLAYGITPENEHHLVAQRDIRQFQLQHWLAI

For `CC(C)C[C@@H]1NC(=O)[C@H](CCCCN)NC(=O)[C@H](Cc2ccc(O)cc2)NC(=O)CNC(=O)C2CSSCC(NC1=O)C(=O)N[C@@H](Cc1c[nH]cn1)C(=O)N1C[C@H](O)C[C@H]1C(=O)N[C@H](C(=O)O)CSSC[C@H](NC(=O)[C@@H](NC(=O)CNC(=O)[C@@H](N)CC(N)=O)C(C)C)C(=O)N2` (some centres not stated), the remaining at 24 h in the series with trypsin is < 55%. In series [1], a half-maximal effect (EC50) was put at 1.82 µM.
